Experimental data published in US12157730B2, “Heteroaryl derivative, method for producing same, and pharmaceutical composition comprising same as effective component” (VORONOI INC., priority 2019, dated 2024).

These compounds were tested against T1, Ba/F3 cell EGFR Exon20 ins NPH (Homo sapiens, UniProt P00533, INS773NPH) (assay: Ba/F3 cell proliferation suppression, EGFR Exon20 ins NPH). Details: GI50 class; Ba/F3 cell line with NPH inserted at Exon20 of EGFR; 72 hours.
T1 construct: expressed in transfected cells; host or cells: Ba/F3
Format: cell-based
Summary of the method: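 Cells (3000–5000/well) plated 24 h before compound, 12-point 3-fold dilutions at 0.3 nM to 50 um final; Ba/F3 lines grown with 5 ng/ml IL-3. Viability by CellTiter-Glo luminescence after 72 h, growth ratio vs control, GI50 from curves; triplicate.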

Row | Compound | Ba/F3 (NPH) Activity
1 | C=CC(=O)Nc1cc(Nc2cc(N3OCC[C@@H]3c3cccc(C)c3F)ncn2)c(OC)cc1N(C)CCOC [compound 319, N-(5-((6-((R)-3-(2-fluoro-3-methylphenyl)isoxazolidine-2-yl)pyrimidine-4-yl)amino)-4-methoxy-2-((2-methoxyethyl) (methyl)amino)phenyl)acrylamide] | B (50 nM ≤ GI50 < 500 nM)
2 | C=CC(=O)Nc1cc(Nc2cc(N3OCC[C@@H]3c3cccc(F)c3)ncn2)c(OC)cc1N1CCC(N2CCN(C)CC2)CC1 [Example 31, N-(5-((6-((R)-3-(3-fluorophenyl)isoxazolidine-2-yl)pyrimidine-4-yl)amino)-4-methoxy-2-(4-(4-methylpiperazine-1-yl)piperidine-1-yl)phenyl) acrylamide] | A (GI50 < 50 nM)
3 | C=CC(=O)Nc1cc(Nc2cc(N3OCC[C@H]3c3c(F)cccc3F)ncn2)c(OC)cc1N1CCC(N(C)C)CC1 [compound 308, N-(5-((6-((S)-3-(2,6-difluorophenyl)isoxazolidine-2-yl)pyrimidine-4-yl)amino)-2-(4-(dimethylamino)piperidine-1-yl)-4-methoxyphenyl) acrylamide] | C (500 nM ≤ GI50 < 5000 nM)
4 | C=CC(=O)Nc1cc(Nc2cc(N3OCC[C@@H]3c3cc(F)ccc3F)ncn2)c(OC)cc1N1CCN(CCC)CC1 [compound 300, N-(5-((6-((R)-3-(2,5-difluorophenyl)isoxazolidine-2-yl)pyrimidine-4-yl)amino)-4-methoxy-2-(4-propylpiperazine-1-yl)phenyl)acrylamide] | A (GI50 < 50 nM)
5 | C=CC(=O)Nc1cc(Nc2cc(N3OCC[C@@H]3c3ccc(Cl)c(Cl)c3)ncn2)c(OC)cc1N1C[C@@H]2C[C@H]1CN2CC [compound 678, N-(5-((6-((R)-3-(3,4-dichlorophenyl)isoxazolidine-2-yl)pyrimidine-4-yl)amino)-2-((1S,4S)-5-ethyl-2,5-diazabicyclo[2.2.1]heptane-2-yl)-4-methoxyphenyl) acrylamide] | A (GI50 < 50 nM)
6 | C=CC(=O)Nc1cc(Nc2cc(N3OCC[C@@H]3c3cccc(C)c3F)ncn2)c(OC)cc1N1CCC(N2C[C@@H]3C[C@H]2CO3)CC1 [compound 362, N-(2-(4-((1S,4S)-2-oxa-5-azabicyclo[2.2.1]heptane-5-yl)piperidine-1-yl)-5-((6-((R)-3-(2-fluoro-3-methylphenyl)isoxazolidine-2-yl)pyrimidine-4-yl)amino)-4-methoxyphenyl) acrylamide] | A (GI50 < 50 nM)
7 | C=CC(=O)Nc1cc(Nc2cc(N3OCC[C@@H]3c3cc(F)cc(F)c3)ncn2)c(OC)cc1N1CCC(N2CC[C@@H](CN(C)C)C2)CC1 [compound 626, N-(5-((6-((R)-3-(3,5-difluorophenyl)isoxazolidine-2-yl)pyrimidine-4-yl)amino)-2-(4-((S)-3-((dimethylamino)methyl)pyrolidine-1-yl)piperidine-1-yl)-4-methoxyphenyl) acrylamide] | A (GI50 < 50 nM)
8 | C=CC(=O)Nc1cc(Nc2cc(N3OCC[C@@H]3c3cccc(C(F)(F)F)c3)ncn2)c(OC)cc1N1CCC(N2CCN(C3CC3)[C@H](C)C2)CC1 [compound 942, N-(2-(4-((R)-4-cyclopropyl-3-methylpiperazine-1-yl)piperidine-1-yl)-4-methoxy-5-((6-((R)-3-(3-(trifluoromethyl)phenyl)isoxazolidine-2-yl)pyrimidine-4-yl)amino)phenyl) acrylamide] | A (GI50 < 50 nM)
9 | C=CC(=O)Nc1cc(Nc2cc(N3OCC[C@@]3(C)c3ccccc3)ncn2)c(OC)cc1N1CCC(N2C[C@H]3C[C@@H]2CO3)CC1 [Example 269, N-(2-(4-((1R,4R)-2-oxa-5-azabicyclo[2.2.1]heptane-5-yl)piperidine-1-yl)-4-methoxy-5-((6-((S)-3-methyl-3-phenylisoxazolidine-2-yl)pyrimidine-4-yl)amino)phenyl) acrylamide] | C (500 nM ≤ GI50 < 5000 nM)
10 | C=CC(=O)Nc1cc(Nc2cc(N3OCC[C@@H]3c3ccc(C)nc3)ncn2)c(OC)cc1N(C)CCOC [Example 223, N-(4-methoxy-2-((2-methoxyethyl) (methyl)amino)-5-((6-((R)-3-(6-methylpyridine-3-yl)isoxazolidine-2-yl)pyrimidine-4-yl)amino)phenyl)acrylamide] | B (50 nM ≤ GI50 < 500 nM)
11 | C=CC(=O)Nc1cc(Nc2cc(N3OCC[C@@H]3c3cccc(C#N)c3)ncn2)c(OC)cc1N1CCC(N2CCC(F)(F)CC2)CC1 [compound 433, N-(5-((6-((R)-3-(3-cyanophenyl)isoxazolidine-2-yl)pyrimidine-4-yl)amino)-2-(4,4-difluoro-[1,4'-bipiperidine]-1'-yl)-4-methoxyphenyl) acrylamide] | A (GI50 < 50 nM)
12 | C=CC(=O)Nc1cc(Nc2cc(N3OCC[C@@H]3c3cc(F)cc(F)c3)ncn2)c(C)cc1N1CCC(N2CCN(C3CC3)CC2)CC1 [compound 534, N-(2-(4-(4-cyclopropylpiperazine-1-yl)piperidine-1-yl)-5-((6-((R)-3-(3,5-difluorophenyl)isoxazolidine-2-yl)pyrimidine-4-yl)amino)-4-methylphenyl) acrylamide] | A (GI50 < 50 nM)
13 | C=CC(=O)Nc1cc(Nc2cc(N3OCC[C@@H]3c3ccccc3)ncn2)c(OC)cc1N1CCC(N2CCN(CCN(C)C)CC2)CC1 [compound 739, N-(2-(4-(4-(2-(dimethylamino)ethyl)piperazine-1-yl)piperidine-1-yl)-4-methoxy-5-((6-((R)-3-phenylisoxazolidine-2-yl)pyrimidine-4-yl)amino)phenyl) acrylamide] | B (50 nM ≤ GI50 < 500 nM)
14 | C=CC(=O)Nc1cc(Nc2cc(N3OCC[C@@H]3c3ccc(C)nc3)ncn2)c(OC)cc1N1CCOCC1 [Example 43] | B (50 nM ≤ GI50 < 500 nM)
15 | C=CC(=O)Nc1cc(Nc2cc(N3OCC[C@@H]3c3cc(F)cc(F)c3)ncn2)c(OC)cc1N1CCC(N2CCN(C3CCC3)CC2)CC1 [Example 68, N-(2-(4-(4-cyclobutylpiperazine-1-yl)piperidine-1-yl)-5-((6-((R)-3-(3,5-difluorophenyl)isoxazolidine-2-yl)pyrimidine-4-yl)amino)-4-methoxyphenyl) acrylamide] | A (GI50 < 50 nM)
16 | C=CC(=O)Nc1cc(Nc2cc(N3OCC[C@@H]3Cc3cccc(F)c3Cl)ncn2)c(OC)cc1N1CCC(N2CCN(C3CC3)[C@H](C)C2)CC1 [compound 1036, N-(5-((6-((S)-3-(2-chloro-3-fluorobenzyl)isoxazolidine-2-yl)pyrimidine-4-yl)amino)-2-(4-((R)-4-cyclopropyl-3-methylpiperazine-1-yl)piperidine-1-yl)-4-methoxyphenyl) acrylamide] | A (GI50 < 50 nM)
17 | C=CC(=O)Nc1cc(Nc2cc(N3OCC[C@@H]3c3cccc(C)c3F)ncn2)c(OC)cc1N1CCN(CC)CC1 [compound 847, N-(2-(4-ethylpiperazine-1-yl)-5-((6-((R)-3-(2-fluoro-3-methylphenyl)isoxazolidine-2-yl)pyrimidine-4-yl)amino)-4-methoxyphenyl) acrylamide] | A (GI50 < 50 nM)
18 | C=CC(=O)Nc1cc(Nc2cc(N3OCC[C@@H]3c3cccc(F)c3F)ncn2)c(OC)cc1N1CCO[C@H](C)C1 [compound 889, N-(5-((6-((R)-3-(2,3-difluorophenyl)isoxazolidine-2-yl)pyrimidine-4-yl)amino)-4-methoxy-2-((R)-2-methylmorpholino)phenyl)acrylamide] | A (GI50 < 50 nM)
19 | C=CC(=O)Nc1cc(Nc2cc(N3OCC[C@@H]3c3cccc(C(F)(F)F)c3)ncn2)c(OC)cc1N1CCC(N2CCN(C3CC3)CC2)CC1 [Example 148, N-(2-(4-(4-cyclopropylpiperazine-1-yl)piperidine-1-yl)-4-methoxy-5-((6-((R)-3-(3-(trifluoromethyl)phenyl)isoxazolidine-2-yl)pyrimidine-4-yl)amino)phenyl)acrylamide] | A (GI50 < 50 nM)
20 | C=CC(=O)Nc1cc(Nc2cc(N3OCC[C@@H]3c3cc(F)cc(F)c3)ncn2)c(OC)cc1N1CCC(N2CCN3CCCC3C2)CC1 (stereo partly drawn) [compound 852, N-(5-((6-((R)-3-(3,5-difluorophenyl)isoxazolidine-2-yl)pyrimidine-4-yl)amino)-2-(4-(hexahydropyrrolo [1,2-a]pyrazine-2(1H)-yl)piperidine-1-yl)-4-methoxyphenyl) acrylamide] | A (GI50 < 50 nM)
21 | C=CC(=O)Nc1cc(Nc2cc(N3OCC[C@@H]3c3ccc(F)cc3)ncn2)c(OC)cc1N1CCC(N2C[C@H]3CCN(C)[C@H]3C2)CC1 [compound 541, N-(5-((6-((R)-3-(4-fluorophenyl)isoxazolidine-2-yl)pyrimidine-4-yl)amino)-4-methoxy-2-(4-((3aR,6aR)-1-methylhexahydropyrrolo [3,4-b]pyrrole-5(1H)-yl)piperidine-1-yl)phenyl)acrylamide] | A (GI50 < 50 nM)
22 | C=CC(=O)Nc1cc(Nc2cc(N3OCC[C@@H]3c3cccc(C#N)c3)ncn2)c(OC)cc1N1C[C@H]2CCN(C)[C@H]2C1 [compound 331, N-(5-((6-((R)-3-(3-cyanophenyl)isoxazolidine-2-yl)pyrimidine-4-yl)amino)-4-methoxy-2-((3aR, 6aR)-1-methylhexahydropyrrolo [3,4-b]pyrrole-5(1H)-yl)phenyl)acrylamide] | A (GI50 < 50 nM)
23 | C=CC(=O)Nc1cc(Nc2cc(N3OCC[C@@H]3c3cccc(Cl)c3Cl)ncn2)c(OC)cc1N1CCC(N(C)CCN(C)C)CC1 [compound 613, N-(5-((6-((R)-3-(2,3-dichlorophenyl)isoxazolidine-2-yl)pyrimidine-4-yl)amino)-2-(4-((2-(dimethylamino)ethyl) (methyl)aino)piperidine-1-yl)-4-methoxyphenyl) acrylamide] | B (50 nM ≤ GI50 < 500 nM)
